In brackets after ≈: the same amount, converted by molar mass. Values belong to the molecule of their own block, whether it stands above or below them.
Columns and labels:
[1] = system: Escherichia coli; experiment: in vitro antibacterial evaluation, MIC by broth dilution; assay type: cell-based; details: 18 hours at 35° C.
Outline: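 MIC is the lowest antibiotic concentration (tested 64-0.06 μg/mL) preventing growth of a 5×10^5 CFU/mL inoculum. Determined by broth dilution in Mueller-Hinton II medium following NCCLS standard M7-A2.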

[2] = system: Staphylococcus sp.; experiment: as above; assay type: cell-based; details: broth dilution, 18 hours at 35° C.; for MIC Staphylococcus aureus (ATCC 29213): strain ATCC 29213; for MIC Staphylococcus aureus (GC 1131): strain GC 1131; for MIC Staphylococcus aureus (GC 3051): strain GC 3051; for MIC Staphylococcus aureus (GC 3053): strain GC 3053; for MIC Staphylococcus aureus (GC 4541): strain GC 4541; for MIC Staphylococcus aureus (GC 4542): strain GC 4542; for MIC Staphylococcus aureus-SMITH (GC 4543): strain GC 4543; for MIC Staphylococcus aureus (GC 4544): strain GC 4544; for MIC Staphylococcus aureus (GC 4545): strain GC 4545; for MIC Staphylococcus haemolyticus (GC 4546): strain GC 4546; for MIC Coagulase Negative Staphylococcus (GC 4547): strain GC 4547; for MIC Coagulase Negative Staphylococcus (GC 4548): strain GC 4548; for MIC Coagulase Negative Staphylococcus (GC 4549): strain GC 4549; for MIC Coagulase Negative Staphylococcus (GC 4551): strain GC 4551; for MIC Coagulase Negative Staphylococcus (GC 6257): strain GC 6257
Outline: (§1)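 MIC, the lowest antibiotic concentration preventing growth, was read across 64-0.06 μg/mL with 5×10^5 CFU/mL inoculum. Method followed NCCLS M7-A2 broth dilution using Mueller-Hinton II; Gram-positive strains covered recent methicillin-, penicillin- and/or vancomycin-resistant clinical isolates.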

[3] = system: Streptococcus sp.; experiment: as above; assay type: cell-based; details: broth dilution, 18 hours at 35° C.
Outline: as §1

[4] = system: Enterococcus sp.; experiment: as above; assay type: cell-based; details: broth dilution, 18 hours at 35° C.
Outline: as §1

[5] = anatomic pathology (histopathology of heart and kidney) in mice; assay type: in vivo; details: CD-1 mice, 20 mg/kg intravenously daily for 9 days, necropsy day 10, microscopic histopathology
Method: Samples of tissues from necropsied mice were formalin-fixed, paraffin-embedded, sectioned, stained with hematoxylin and eosin, and examined microscopically. Histopathologic findings were recorded. These findings were subjectively graded on a scale corresponding to slight, mild, moderate, marked and severe as compared to untreated controls.

[6] = Enterococcus faecalis (ATCC 29212)
[7] = Enterococcus faecalis (GC 4552)
[8] = Enterococcus faecalis (GC 4553)
[9] = Enterococcus faecalis (GC 4554)
[10] = Enterococcus faecalis (GC 6189)

MIC Escherichia coli (ATCC 25922) [1]: >128 µg/mL
MIC Escherichia coli (GC 4559) [1]: >128 µg/mL
MIC Escherichia coli (GC 4560) [1]: >128 µg/mL
MIC Staphylococcus aureus (ATCC 29213) [2]: >128 µg/mL
MIC Staphylococcus aureus (GC 1131) [2]: >128 µg/mL
MIC Staphylococcus aureus (GC 3051) [2]: >128 µg/mL
MIC Staphylococcus aureus (GC 3053) [2]: >128 µg/mL
MIC Staphylococcus aureus (GC 4541) [2]: >128 µg/mL
MIC Staphylococcus aureus (GC 4542) [2]: >128 µg/mL
MIC Staphylococcus aureus-SMITH (GC 4543) [2]: >128 µg/mL
MIC Staphylococcus aureus (GC 4544) [2]: >128 µg/mL
MIC Staphylococcus aureus (GC 4545) [2]: >128 µg/mL
MIC Coagulase Negative Staphylococcus (GC 4547) [2]: >128 µg/mL
MIC Coagulase Negative Staphylococcus (GC 4548) [2]: >128 µg/mL
MIC Coagulase Negative Staphylococcus (GC 4549) [2]: >128 µg/mL
MIC Coagulase Negative Staphylococcus (GC 4551) [2]: >128 µg/mL
MIC Coagulase Negative Staphylococcus (GC 6257) [2]: >128 µg/mL
MIC Streptococcus agalactiae (GC 4564) [3]: 128 µg/mL (≈ 93.7 µM)
MIC Streptococcus pneumoniae (ATCC 6301) [3]: >128 µg/mL
MIC Streptococcus pneumoniae (GC 1894) [3]: 128 µg/mL (≈ 93.7 µM)
MIC Streptococcus pneumoniae (GC 4565) [3]: >128 µg/mL
MIC Streptococcus pyogenes (GC 4563) [3]: >128 µg/mL
MIC Streptococcus pneumoniae (ATCC 6301) ([3]; strain ATCC 6301): >128 µg/mL
MIC Streptococcus pneumoniae (GC 1894) ([3]; strain GC 1894): 128 µg/mL (≈ 93.7 µM)
MIC Streptococcus pyogenes (GC 4563) ([3]; strain GC 4563): >128 µg/mL
MIC Streptococcus agalactiae (GC 4564) ([3]; strain GC 4564): 128 µg/mL (≈ 93.7 µM)
MIC Streptococcus pneumoniae (GC 4565) ([3]; strain GC 4565): >128 µg/mL
MIC Enterococcus avium (GC 4558) ([4]; Enterococcus avium (GC 4558)): 128 µg/mL (≈ 93.7 µM)
MIC Enterococcus faecalis (ATCC 29212) [4, 6]: >128 µg/mL
MIC Enterococcus faecalis (GC 4552) [4, 7]: >128 µg/mL
MIC Enterococcus faecalis (GC 4553) [4, 8]: >128 µg/mL
MIC Enterococcus faecalis (GC 4554) [4, 9]: >128 µg/mL
MIC Enterococcus faecalis (GC 6189) [4, 10]: >128 µg/mL
MIC Enterococcus faecium (GC 2243) ([4]; Enterococcus faecium (GC 2243)): >128 µg/mL
MIC Enterococcus faecium (GC 4556) ([4]; Enterococcus faecium (GC 4556)): >128 µg/mL
MIC Enterococcus faecium (GC 4557) ([4]; Enterococcus faecium (GC 4557)): >128 µg/mL
MIC Enterococcus avium (GC 4558) [4]: 128 µg/mL (≈ 93.7 µM)
MIC Enterococcus faecalis (ATCC 29212) [4]: >128 µg/mL
MIC Enterococcus faecalis (GC 2242) [4]: >128 µg/mL
MIC Enterococcus faecalis (GC 2691) [4]: >128 µg/mL
MIC Enterococcus faecalis (GC 3059) [4]: >128 µg/mL
MIC Enterococcus faecalis (GC 4552) [4]: >128 µg/mL
MIC Enterococcus faecalis (GC 4553) [4]: >128 µg/mL
MIC Enterococcus faecalis (GC 4554) [4]: >128 µg/mL
MIC Enterococcus faecalis (GC 6189) [4]: >128 µg/mL
MIC Enterococcus faecium (GC 2243) [4]: >128 µg/mL
MIC Enterococcus faecium (GC 4556) [4]: >128 µg/mL
MIC Enterococcus faecium (GC 4557) [4]: >128 µg/mL
MIC Enterococcus faecalis (GC 2242) ([4]; strain GC 2242): >128 µg/mL
MIC Enterococcus faecalis (GC 2691) ([4]; strain GC 2691): >128 µg/mL
MIC Enterococcus faecalis (GC 3059) ([4]; strain GC 3059): >128 µg/mL
SMILES: CN=C1N(C)CC(C(O)C2NC(=O)C(Cc3ccc(OC4OC(CO)C(OC5OC(CO)C(O)C(O)C5O)C(O)C4O)cc3)NC(=O)C(C(C)c3ccccc3)NC(=O)CNC(=O)C(CO)NC(=O)C(C(O)C3CN(C)C(=NC)N3C3OC(CO)C(O)C(O)C3O)NC2=O)N1C (stereo not drawn) [Example 64, Cyclo[glycyl-β-methylphenylalanyl-O-(4-O-hexopyranosylhexopyranosyl)tyrosyl-3-(1,3-dimethyl-2-(methylimino)imidazolidin-4-yl)seryl-3-[3-hexopyranosyl-1-methyl-2-(methylimino)imidazolidin-4-yl]-serylseryl]]
MIC Staphylococcus haemolyticus (GC 4546) [2]: >128 µg/mL
Anatomical Pathology (Day 10), Heart [5]: 0
Anatomical Pathology (Day 10), Kidney [5]: 0

MIC Escherichia coli (ATCC 25922) [1]: >128 µg/mL
MIC Escherichia coli (GC 4559) [1]: >128 µg/mL
MIC Escherichia coli (GC 4560) [1]: 16 µg/mL (≈ 11.1 µM)
MIC Staphylococcus aureus (ATCC 29213) [2]: >128 µg/mL
MIC Staphylococcus aureus (GC 1131) [2]: >128 µg/mL
MIC Staphylococcus aureus (GC 3051) [2]: >128 µg/mL
MIC Staphylococcus aureus (GC 3053) [2]: >128 µg/mL
MIC Staphylococcus aureus (GC 4541) [2]: >128 µg/mL
MIC Staphylococcus aureus (GC 4542) [2]: >128 µg/mL
MIC Staphylococcus aureus-SMITH (GC 4543) [2]: >128 µg/mL
MIC Staphylococcus aureus (GC 4544) [2]: >128 µg/mL
MIC Staphylococcus aureus (GC 4545) [2]: >128 µg/mL
MIC Coagulase Negative Staphylococcus (GC 4547) [2]: >128 µg/mL
MIC Coagulase Negative Staphylococcus (GC 4548) [2]: >128 µg/mL
MIC Coagulase Negative Staphylococcus (GC 4549) [2]: >128 µg/mL
MIC Coagulase Negative Staphylococcus (GC 4551) [2]: >128 µg/mL
MIC Coagulase Negative Staphylococcus (GC 6257) [2]: >128 µg/mL
MIC Streptococcus agalactiae (GC 4564) [3]: >128 µg/mL
MIC Streptococcus pneumoniae (ATCC 6301) [3]: 128 µg/mL (≈ 88.8 µM)
MIC Streptococcus pneumoniae (GC 1894) [3]: 64 µg/mL (≈ 44.4 µM)
MIC Streptococcus pneumoniae (GC 4565) [3]: 128 µg/mL (≈ 88.8 µM)
MIC Streptococcus pyogenes (GC 4563) [3]: >128 µg/mL
MIC Streptococcus pneumoniae (ATCC 6301) ([3]; strain ATCC 6301): 128 µg/mL (≈ 88.8 µM)
MIC Streptococcus pneumoniae (GC 1894) ([3]; strain GC 1894): 64 µg/mL (≈ 44.4 µM)
MIC Streptococcus pyogenes (GC 4563) ([3]; strain GC 4563): >128 µg/mL
MIC Streptococcus agalactiae (GC 4564) ([3]; strain GC 4564): >128 µg/mL
MIC Streptococcus pneumoniae (GC 4565) ([3]; strain GC 4565): 128 µg/mL (≈ 88.8 µM)
MIC Enterococcus avium (GC 4558) ([4]; Enterococcus avium (GC 4558)): 128 µg/mL (≈ 88.8 µM)
MIC Enterococcus faecalis (ATCC 29212) [4, 6]: >128 µg/mL
MIC Enterococcus faecalis (GC 4552) [4, 7]: >128 µg/mL
MIC Enterococcus faecalis (GC 4553) [4, 8]: 128 µg/mL (≈ 88.8 µM)
MIC Enterococcus faecalis (GC 4554) [4, 9]: >128 µg/mL
MIC Enterococcus faecalis (GC 6189) [4, 10]: >128 µg/mL
MIC Enterococcus faecium (GC 2243) ([4]; Enterococcus faecium (GC 2243)): >128 µg/mL
MIC Enterococcus faecium (GC 4556) ([4]; Enterococcus faecium (GC 4556)): >128 µg/mL
MIC Enterococcus faecium (GC 4557) ([4]; Enterococcus faecium (GC 4557)): 128 µg/mL (≈ 88.8 µM)
MIC Enterococcus avium (GC 4558) [4]: 128 µg/mL (≈ 88.8 µM)
MIC Enterococcus faecalis (ATCC 29212) [4]: >128 µg/mL
MIC Enterococcus faecalis (GC 2242) [4]: >128 µg/mL
MIC Enterococcus faecalis (GC 2691) [4]: >128 µg/mL
MIC Enterococcus faecalis (GC 3059) [4]: >128 µg/mL
MIC Enterococcus faecalis (GC 4552) [4]: >128 µg/mL
MIC Enterococcus faecalis (GC 4553) [4]: 128 µg/mL (≈ 88.8 µM)
MIC Enterococcus faecalis (GC 4554) [4]: >128 µg/mL
MIC Enterococcus faecalis (GC 6189) [4]: >128 µg/mL
MIC Enterococcus faecium (GC 2243) [4]: >128 µg/mL
MIC Enterococcus faecium (GC 4556) [4]: >128 µg/mL
MIC Enterococcus faecium (GC 4557) [4]: 128 µg/mL (≈ 88.8 µM)
MIC Enterococcus faecalis (GC 2242) ([4]; strain GC 2242): >128 µg/mL
MIC Enterococcus faecalis (GC 2691) ([4]; strain GC 2691): >128 µg/mL
MIC Enterococcus faecalis (GC 3059) ([4]; strain GC 3059): >128 µg/mL
SMILES: CC(c1ccccc1)C1NC(=O)CNC(=O)C(CO)NC(=O)C(C(O)C2CN(Cc3ccc(C(C)(C)C)cc3)C(=N)N2C2OC(CO)C(O)C(O)C2O)NC(=O)C(C(O)C2CNC(=N)N2)NC(=O)C(Cc2ccc(OC3OC(CO)C(OC4OC(CO)C(O)C(O)C4O)C(O)C3O)cc2)NC1=O (stereo not drawn) [Example 60, Cyclo[glycyl-β-methylphenylalanyl-O-(4-O-hexopyranosylhexopyranosyl)tyrosl-(2-iminoimidazolidin-4-yl)seryl-3-[1-(4-tert-butylbenzyl)-3-hexopyranosyl-2-iminoimidazolidin-4-yl]-serylseryl]]
MIC Staphylococcus haemolyticus (GC 4546) [2]: >128 µg/mL
Anatomical Pathology (Day 10), Heart [5]: 0
Anatomical Pathology (Day 10), Kidney [5]: 0

Reference: patent US6914045B2, “Glycopeptide antibiotics” (Wyeth Holdings Corporation, priority 2001, dated 2005)
